US20110071108A1, “Beta-Cyclodextrin Derivatives as Antibacterial Agents” (Pinnacle Pharmaceuticals, Inc., priority 2005, published 2011)

Experiments:
Assay in all cases: Bacterial panel testing, MIC by broth microdilution
Format in all cases: cell-based
Details in all cases: 20-24 hours growth
Pseudomonas aeruginosa = system: Pseudomonas aeruginosa
Experimental: (§1) One to three colonies of bacteria were picked from an Mueller-Hinton or Brain Heart infusion agar plate (depending on the bacterial strain) and transferred to 3 ml Mueller-Hinton broth or Brain Heart infusion media (depending on the bacterial strain). Bacteria were allowed to grow for 2-4 hours in an incubator at 37° C. Bacteria-inoculated media were dispersed in 0.9% saline to match McFarland standard density. 100 μl standardized inoculation was added to 20 ml media (dilution 1). 10 μl of the new dilution was added to 990 μl media and mixed (dilution 2). 10 μl of dilution 2 was spread on an agar plate and allowed to grow overnight. Colonies were then […].
(§2) Test compound was diluted to 10 μg/ml in dimethylsulfoxide. Four μl of Rifampicin antibiotic was loaded into row H, column 2.
(§3) All wells were then filled with 100 μl of inoculated media (dilution 1 from Example 1). A further 100 μl of the inoculated media was then added to column 2 and the contents are pipetted to thoroughly mix the contents. A full 100 μl was then transferred from column 2 and mixed into column 3. This process was continued from left to right until columns 2-12 were serially diluted, and the final draw from column 12 was discarded. The plates were covered with 3M sealing tape (plates containing Enterococcus faecium were sealed with Air Pore sealing tape) and allowed to grow for 20-24 hours. Cytotoxic wells (clear wells) are then scored and the potency of the compound was determined.

Salmonella choleraesuis = system: Salmonella choleraesuis
Experimental: as §1, §2, §3

Eschericia coli = system: Eschericia coli
Experimental: as §1, §2, §3

Enterococcus faecium = system: Enterococcus faecium
Experimental: as §1, §2, §3

OC1C2OC(CN3CCCc4ccccc43)C(OC3OC(CN4CCCc5ccccc54)C(OC4OC(CN5CCCc6ccccc65)C(OC5OC(CN6CCCc7ccccc76)C(OC6OC(CN7CCCc8ccccc87)C(OC7OC(CN8CCCc9ccccc98)C(OC8OC(CN9CCCc%10ccccc%109)C(O2)C(O)C8O)C(O)C7O)C(O)C6O)C(O)C5O)C(O)C4O)C(O)C3O)C1O (stereo not shown)
>200 µg/mL: MIC PA (Pseudomonas aeruginosa) | MIC SC (Salmonella choleraesuis) | MIC EC (Eschericia coli) | MIC EF (Enterococcus faecium)

OC1C2OC(CNC3CCCc4ccccc43)C(OC3OC(CNC4CCCc5ccccc54)C(OC4OC(CNC5CCCc6ccccc65)C(OC5OC(CNC6CCCc7ccccc76)C(OC6OC(CNC7CCCc8ccccc87)C(OC7OC(CNC8CCCc9ccccc98)C(OC8OC(CNC9CCCc%10ccccc%109)C(O2)C(O)C8O)C(O)C7O)C(O)C6O)C(O)C5O)C(O)C4O)C(O)C3O)C1O (stereo not shown)
>200 µg/mL: MIC PA (Pseudomonas aeruginosa) | MIC EC (Eschericia coli) | MIC EF (Enterococcus faecium)

CCCCCCCCCCCCCCCC[N+]12CC[N+](CC(=O)NCC3OC4OC5C(CNC(=O)C[N+]67CC[N+](CCCCCCCCCCCCCCCC)(CC6)CC7)OC(OC6C(CNC(=O)C[N+]78CC[N+](CCCCCCCCCCCCCCCC)(CC7)CC8)OC(OC7C(CNC(=O)C[N+]89CC[N+](CCCCCCCCCCCCCCCC)(CC8)CC9)OC(OC8C(CNC(=O)C[N+]9%10CC[N+](CCCCCCCCCCCCCCCC)(CC9)CC%10)OC(OC9C(CNC(=O)C[N+]%10%11CC[N+](CCCCCCCCCCCCCCCC)(CC%10)CC%11)OC(OC%10C(CNC(=O)C[N+]%11%12CC[N+](CCCCCCCCCCCCCCCC)(CC%11)CC%12)OC(OC3C(O)C4O)C(O)C%10O)C(O)C9O)C(O)C8O)C(O)C7O)C(O)C6O)C(O)C5O)(CC1)CC2 (stereo not shown)
>200 µg/mL: MIC PA (Pseudomonas aeruginosa) | MIC SC (Salmonella choleraesuis) | MIC EC (Eschericia coli) | MIC EF (Enterococcus faecium)

Cc1ccc(NCC2OC3OC4C(CNc5ccc(C)cc5)OC(OC5C(CNc6ccc(C)cc6)OC(OC6C(CNc7ccc(C)cc7)OC(OC7C(CNc8ccc(C)cc8)OC(OC8C(CNc9ccc(C)cc9)OC(OC9C(CNc%10ccc(C)cc%10)OC(OC2C(O)C3O)C(O)C9O)C(O)C8O)C(O)C7O)C(O)C6O)C(O)C5O)C(O)C4O)cc1 (stereo not shown)
>200 µg/mL: MIC PA (Pseudomonas aeruginosa) | MIC SC (Salmonella choleraesuis) | MIC EC (Eschericia coli) | MIC EF (Enterococcus faecium)

OC1C2OC(CN3CCN(C4CCCCC4)CC3)C(OC3OC(CN4CCN(C5CCCCC5)CC4)C(OC4OC(CN5CCN(C6CCCCC6)CC5)C(OC5OC(CN6CCN(C7CCCCC7)CC6)C(OC6OC(CN7CCN(C8CCCCC8)CC7)C(OC7OC(CN8CCN(C9CCCCC9)CC8)C(OC8OC(CN9CCN(C%10CCCCC%10)CC9)C(O2)C(O)C8O)C(O)C7O)C(O)C6O)C(O)C5O)C(O)C4O)C(O)C3O)C1O (stereo not shown)
>200 µg/mL: MIC PA (Pseudomonas aeruginosa) | MIC SC (Salmonella choleraesuis) | MIC EC (Eschericia coli) | MIC EF (Enterococcus faecium)

Cl.Cl.Cl.Cl.Cl.Cl.Cl.N=C(N)NCCCCCCSCC1OC2OC3C(CSCCCCCCNC(=N)N)OC(OC4C(CSCCCCCCNC(=N)N)OC(OC5C(CSCCCCCCNC(=N)N)OC(OC6C(CSCCCCCCNC(=N)N)OC(OC7C(CSCCCCCCNC(=N)N)OC(OC8C(CSCCCCCCNC(=N)N)OC(OC1C(O)C2O)C(O)C8O)C(O)C7O)C(O)C6O)C(O)C5O)C(O)C4O)C(O)C3O (stereo not shown)
>200 µg/mL: MIC PA (Pseudomonas aeruginosa) | MIC SC (Salmonella choleraesuis) | MIC EC (Eschericia coli) | MIC EF (Enterococcus faecium)

CC(C)[C@H](C)NCC1OC2OC3C(CN[C@@H](C)C(C)C)OC(OC4C(CN[C@@H](C)C(C)C)OC(OC5C(CN[C@@H](C)C(C)C)OC(OC6C(CN[C@@H](C)C(C)C)OC(OC7C(CN[C@@H](C)C(C)C)OC(OC8C(CN[C@@H](C)C(C)C)OC(OC1C(O)C2O)C(O)C8O)C(O)C7O)C(O)C6O)C(O)C5O)C(O)C4O)C(O)C3O (stereo partly shown)
>200 µg/mL: MIC PA (Pseudomonas aeruginosa) | MIC EF (Enterococcus faecium)
